Measurements from patent US10550116B2, “Fused bicyclic heterocycle derivatives as pesticides” (BAYER CROPSCIENCE AKTIENGESELLSCHAFT, priority 2015, dated 2020).
Read-outs that look alike come from different tables or passages of the source.

Legend:
[1] = log P by HPLC on reversed-phase column (EEC Directive 79/831 Annex V.A8); assay type: physicochemical; settings: reversed-phase C18 HPLC column, 55° C.
Procedure: The log P values are measured according to EEC Directive 79/831 Annex V.A8 by HPLC (high-performance liquid chromatography) on a reversed-phase column (C 18). Temperature: 55° C. The LC-MS determination in the acidic range is effected at pH 2.7 using 0.1% aqueous formic acid and acetonitrile (contains 0.1% formic acid) as eluents; linear gradient from 10% acetonitrile to 95% acetonitrile. Called log P (HCOOH) in the table. LC-MS determination in the neutral range is effected at pH 7.8 with 0.001 molar aqueous ammonium hydrogencarbonate solution and acetonitrile as eluents; linear gradient from 10% acetonitrile to 95% acetonitrile. Called log P (neutral) in the table. Calibration is carried out using unbranched alkan-2-ones (having 3 to 16 carbon atoms) with known log P values (log P values determined on the basis of the retention times by linear interpolation between two successive alkanones).

[2] = system: Spodoptera frugiperda; assay: Spodoptera frugiperda spray test; assay type: in vivo; settings: foliar, 168 h, caterpillars on maize leaf discs, after 7 days, read-out: efficacy
Procedure: (§1) To produce a suitable active ingredient preparation, 1 part by weight of active ingredient is dissolved with the stated parts by weight of solvent and made up with water containing an emulsifier concentration of 1000 ppm until the desired concentration is attained. To produce further test concentrations, the preparation is diluted with emulsifier-containing water. Leaf discs of maize (Zea mays) are sprayed with an active ingredient preparation of the desired concentration and, after drying, populated with caterpillars of the armyworm (Spodoptera frugiperda). After 7 days, the efficacy in % is determined. 100% means that all the caterpillars have been killed; 0% means that no caterpillar has been killed.

[3] = system: Myzus persicae; assay: Myzus persicae spray test; assay type: in vivo; settings: foliar, Chinese cabbage leaf discs, after 5-6 days, read-out: efficacy
Procedure: as §1, with “Discs” for “Leaf discs”, “Chinese cabbage leaves (Brassica pekinensis) infested by all stages of the green peach aphid (Myzus persicae)” for “maize (Zea mays)”, “concentration.” for “concentration and, after drying, populated with caterpillars of the armyworm (Spodoptera frugiperda).”, “5-6” for “7”, “aphids” for “caterpillars”, “aphids have” for “caterpillar has”

[4] = system: Phaedon cochleariae; assay: Phaedon cochleariae spray test; assay type: in vivo; settings: foliar, 168 h, larvae on Chinese cabbage leaf discs, after 7 days, read-out: efficacy
Procedure: as §1, with “water. Discs” for “water. Leaf discs”, “of Chinese cabbage leaves (Brassica pekinensis)” for “of maize (Zea mays)”, “with larvae” for “with caterpillars”, “the mustard beetle (Phaedon cochleariae).” for “the armyworm (Spodoptera frugiperda).”, “the beetle larvae” for “the caterpillars”, “no beetle larvae have” for “no caterpillar has”

[5] = pH 7.8, aqueous ammonium hydrogencarbonate/acetonitrile, read-out: log P (neutral)
[6] = pH 2.7, 0.1% aqueous formic acid/acetonitrile, read-out: log P (acidic)

Compound | chromatographic logP [1, 5] | pest or weed control at 500 g/ha [2] [%] | other results
CCSc1cc2cc(Cl)ccc2nc1-c1nc2cc(C(F)(F)F)ncc2n1C [6-Chloro-3-ethylsulphanyl-2-[3-methyl-6-(trifluoromethyl)imidazo[4,5-c]pyridin-2-yl]quinoline] | 3.99 | – | –
COC(=O)c1ccc2ncccc2n1 [XXII-2, Methyl 1,5-naphthyridine-2-carboxylate] | 0.92 | – | –
CCSc1ccc2nc(-c3nc4cc(C(F)(F)F)ncc4n3C)c(SCC)cc2c1 [3,6-bis(ethylsulphanyl)-2-[3-methyl-6-(trifluoromethyl)imidazo[4,5-c]pyridin-2-yl]quinoline] | 4.35 | – | –
CCS(=O)(=O)c1cc2cc(Cl)ccc2nc1-c1nc2cc(C(F)(F)F)ncc2n1C [Example I-7] | – | 100 | pest or weed control at 500 g/ha [3]: 90%; pest or weed control at 500 g/ha [4]: 100%
CCSc1cc2ccccc2nc1C(=O)N(C)OC [3-(Ethylsulphanyl)-N-methoxy-N-methylquinoline-2-carboxamide] | 2.17 | – | –
COC(=O)c1ccc2cccnc2n1 [XXII-1, Methyl 1,8-naphthyridine-2-carboxylate] | 0.77 | – | –
CCS(=O)(=O)c1cc2ccccc2nc1-c1nc2cc(C(F)(F)C(F)(F)F)cnc2n1C [Example I-20] | – | – | pest or weed control at 100 g/ha ([2]; 100 g/ha): 100%; pest or weed control at 100 g/ha [3]: 100%; pest or weed control at 100 g/ha ([4]; 100 g/ha): 100%
CCSc1cc2ccccc2nc1C(=O)CBr [2-Bromo-1-[3-(ethylsulphanyl)quinolin-2-yl]ethanone] | – | – | chromatographic logP [1, 6]: 3.95
CCSc1cc2ccccc2nc1C(=O)Nc1cc(C(F)(F)F)cnc1Cl [IV-1] | 5.71 | – | –
CCSc1cc2ccccc2nc1C(C)=O [1-[3-(Ethylsulphanyl)quinolin-2-yl]ethanone] | 3.31 | – | –
CCS(=O)(=O)c1cc2ccccc2nc1-c1nc2cc(C(F)(F)F)ccc2n1C [Example I-12] | – | 100 | pest or weed control at 500 g/ha [3]: 90%; pest or weed control at 500 g/ha [4]: 100%
O=C(O)c1ccc2cccnc2n1 [XXX-1, 1,8-Naphthyridine-2-carboxylic acid] | – | – | chromatographic logP [1, 6]: -0.12
CC[S+]([O-])c1cc2ccccc2nc1-c1nc2cc(SC(F)(F)F)ccc2o1 (stereo not drawn) [Example I-30] | – | 100 | pest or weed control at 500 g/ha [3]: 70%; pest or weed control at 500 g/ha [4]: 83%
Cn1c(-c2nc3ccccc3cc2Cl)nc2cc(C(F)(F)F)ncc21 [Example V-1, 3-Chloro-2-[3-methyl-6-(trifluoromethyl)imidazo[4,5-c]pyridin-2-yl]quinoline] | 2.89 | – | –
CCS(=O)(=O)c1cc2ccccc2nc1-c1nc2cc(C(F)(F)F)cnc2n1C [Example I-5] | – | 100 | pest or weed control at 500 g/ha [3]: 70%; pest or weed control at 500 g/ha [4]: 100%
Cn1c(-c2nc3ncc(Cl)cc3cc2Cl)nc2cc(C(F)(F)F)ncc21 [Example V-3, 3,6-Dichloro-2-[3-methyl-6-(trifluoromethyl)-3H-imidazo[4,5-c]pyridin-2-yl]-1,8-naphthyridine] | 2.44 | – | –
CCSc1cc2ccccc2nc1-c1nc2cc(C(F)(F)C(F)(F)F)ncc2n1C [Example I-35] | – | 100 | pest or weed control at 500 g/ha [4]: 83%
CCSc1cc2ccccc2nc1-c1nc2cc(C(F)(F)F)cnc2n1C [Example I-25] | – | 100 | pest or weed control at 500 g/ha [4]: 100%
CCSc1cc2ccccc2nc1C(=O)O [3-(Ethylsulphanyl)quinoline-2-carboxylic acid] | 0.48 | – | –
O=C(O)c1nc2ncc(Cl)cc2cc1Cl [III-1, 3,6-Dichloro-1,8-naphthyridine-2-carboxylic acid] | – | – | chromatographic logP [1, 6]: 0.7
Cn1c(-c2nc3ccc(Cl)cc3cc2Cl)nc2cc(C(F)(F)F)ncc21 [Example V-4, 3,6-Dichloro-2-[3-methyl-6-(trifluoromethyl)imidazo[4,5-c]pyridin-2-yl]quinoline] | 3.53 | – | –
CCS(=O)(=O)c1cc2ccccc2nc1-c1nc2cc(C(F)(F)C(F)(F)F)ncc2n1C [Example I-10] | – | 100 | pest or weed control at 500 g/ha [3]: 90%; pest or weed control at 500 g/ha [4]: 100%
CCS(=O)(=O)c1cc2ccccc2nc1-c1nc2cc(C(F)(F)F)ccc2o1 [Example I-17] | – | 100 | pest or weed control at 500 g/ha [3]: 90%; pest or weed control at 500 g/ha [4]: 100%
CCS(=O)(=O)c1c(-c2nc3cc(C(F)(F)F)ncc3n2C)ncc2ccccc12 [I′-44] | – | 100 | pest or weed control at 500 g/ha [3]: 90%; pest or weed control at 500 g/ha [4]: 83%
CCS(=O)(=O)c1cc2ccccc2nc1-c1nc2cc3c(cc2[nH]1)OC(F)(F)O3 [Example I-15, 6-(3-Ethylsulphonyl-2-quinolyl)-2,2-difluoro-5H-[1,3]dioxolo[4,5-f]benzimidazole] | 3.37 | 100 | pest or weed control at 500 g/ha [4]: 100%
CCSc1cc2ccccc2nc1-c1cn2cnc(C(F)(F)F)cc2n1 [Example I-46, 3-(Ethylsulphanyl)-2-[7-(trifluoromethyl)imidazo[1,2-c]pyrimidin-2-yl]quinoline] | 3.24 | – | –

Continued, in another order:

chromatographic logP [1, 5] | Compound | pest or weed control at 500 g/ha [2] [%] | other results
2.46 | COC(=O)c1nc2ccc(Cl)nc2cc1Cl [XXXI-2, Methyl 3,6-dichloro-1,5-naphthyridine-2-carboxylate] | – | –
4.17 | CCS(=O)(=O)c1cc2ccccc2nc1-c1nc2cc(SC(F)(F)F)ccc2o1 [Example I-14, 2-(3-Ethylsulphonyl-2-quinolyl)-5-(trifluoromethylsulphanyl)-1,3-benzoxazole] | 100 | pest or weed control at 500 g/ha [3]: 90%; pest or weed control at 500 g/ha [4]: 100%
4.36 | CCSc1cc2ccccc2nc1-c1nc2cc(C(F)(F)F)cnc2o1 [Example I-27] | – | –
2.45 | CCS(=O)(=O)c1nc2ccccc2nc1-c1nc2cc(C(F)(F)F)ncc2n1C [Example I-3, 2-Ethylsulphonyl-3-[3-methyl-6-(trifluoromethyl)imidazo[4,5-c]pyridin-2-yl]quinoxaline] | – | –
4.26 | CCSc1cc2ccccc2nc1-c1nc2cc3c(cc2[nH]1)OC(F)(F)O3 [Example I-31, 6-(3-Ethylsulphanyl-2-quinolyl)-2,2-difluoro-5H-[1,3]dioxolo[4,5-f]benzimidazole] | – | –
2.21 | CCS(=O)(=O)c1cnc2nc(-c3nc4cc(C(F)(F)F)ncc4n3C)c(S(=O)(=O)CC)cc2c1 [Example I-41, 3,6-Bis(ethylsulphonyl)-2-[3-methyl-6-(trifluoromethyl)-3H-imidazo[4,5-c]pyridin-2-yl]-1,8-naphthyridine] | – | pest or weed control at 500 g/ha [3]: 90%
2.98 | CC[S+]([O-])c1cc2ccccc2nc1-c1nc2cc(C(F)(F)F)cnc2o1 (stereo not drawn) [Example I-28] | – | –
3.42 | CCS(=O)(=O)c1cc2ccccc2nc1-c1nc2cc(S(=O)(=O)C(F)(F)F)ccc2n1C [Example I-24, 3-Ethylsulphonyl-2-[1-methyl-5-(trifluoromethylsulphonyl)benzimidazol-2-yl]quinoline] | – | –
2.84 | Cn1c(-c2nc3ccccc3nc2Cl)nc2cc(C(F)(F)F)ncc21 [Example V-2, 2-Chloro-3-[3-methyl-6-(trifluoromethyl)imidazo[4,5-c]pyridin-2-yl]quinoxaline] | – | –
1.93 | COC(=O)c1nc2ncc(Cl)cc2cc1Cl [XXXI-1, Methyl 3,6-dichloro-1,8-naphthyridine-2-carboxylate] | – | –
3.3 | CCSc1cc2ccccc2nc1-c1nc2cc(C(F)(F)F)ncc2n1C [Example I-2, 3-Ethylsulphanyl-2-[3-methyl-6-(trifluoromethyl)imidazo[4,5-c]pyridin-2-yl]quinoline] | 100 | pest or weed control at 100 g/ha [3]: 100%
